Usually surface tension liquid-gas stands for the force per length acting along the surface. Broadly, the viscosity is the resistance of a fluid to flow. One may read the mass density as mass per unit of volume.

The structures appear in SMILES notation. Numbers after ± are expanded uncertainties.

For one data set the following is noted: 293.15 K.
With `CC(C)O` [propan-2-ol], the surface tension liquid-gas is 21.28 ± 0.67 mN/m.

Regarding `CCOP(=O)([O-])OCC.CCn1cc[n+](C)c1` [1-ethyl-3-methylimidazolium diethyl phosphate], the surface tension liquid-gas is reported as 34.78 ± 1.3 mN/m.

`CCCO` [propan-1-ol]: the surface tension liquid-gas stood at 23.67 ± 0.72 mN/m.

As to `COP(=O)([O-])OC.Cn1cc[n+](C)c1` [1,3-dimethylimidazolium dimethylphosphate], the surface tension liquid-gas is given as 47.78 ± 1.5 mN/m.

Still in this data set, the particulars now being: 293.15 K; 101 kPa; Liquid.
As to `CC(C)O` [propan-2-ol], the viscosity amounted to 2.41 ± 0.31 mPa·s.

On to `CCOP(=O)([O-])OCC.CCn1cc[n+](C)c1` [1-ethyl-3-methylimidazolium diethyl phosphate], for which the viscosity came out at 537.03 ± 99 mPa·s.

As to `CCCO` [propan-1-ol], the viscosity was determined as 2.2 ± 0.28 mPa·s.

Consider `COP(=O)([O-])OC.Cn1cc[n+](C)c1` [1,3-dimethylimidazolium dimethylphosphate], for which the viscosity came out at 381.22 ± 65 mPa·s.

Staying with this data set, now noted: 293.15 K; 101 kPa; Liquid; Vibrating tube method.
On to `CC(C)O` [propan-2-ol], for which the mass density came to 786 ± 5 kg/m3.

For the compound `CCOP(=O)([O-])OCC.CCn1cc[n+](C)c1` [1-ethyl-3-methylimidazolium diethyl phosphate], the mass density is recorded as 1151 ± 10 kg/m3.

Regarding `CCCO` [propan-1-ol], the mass density is 804 ± 5 kg/m3.

In the case of `COP(=O)([O-])OC.Cn1cc[n+](C)c1` [1,3-dimethylimidazolium dimethylphosphate], the mass density was 1254 ± 9 kg/m3.

Staying with this data set, now noted: 298.15 K.
For the compound `CC(C)O` [propan-2-ol], the surface tension liquid-gas is given as 20.94 ± 0.66 mN/m.

Turning to `CCOP(=O)([O-])OCC.CCn1cc[n+](C)c1` [1-ethyl-3-methylimidazolium diethyl phosphate], the surface tension liquid-gas is reported as 34.46 ± 1.3 mN/m.

For `CCCO` [propan-1-ol], the surface tension liquid-gas worked out at 23.31 ± 0.72 mN/m.

As for `COP(=O)([O-])OC.Cn1cc[n+](C)c1` [1,3-dimethylimidazolium dimethylphosphate], the surface tension liquid-gas is given as 46.98 ± 1.5 mN/m.

The same data set, now with this note: 298.15 K; 101 kPa; Liquid.
Take `CC(C)O` [propan-2-ol]: the viscosity was 2.06 ± 0.27 mPa·s.

For the compound `CCOP(=O)([O-])OCC.CCn1cc[n+](C)c1` [1-ethyl-3-methylimidazolium diethyl phosphate], the viscosity was 320.89 ± 53 mPa·s.

For the compound `CCCO` [propan-1-ol], the viscosity is 1.99 ± 0.26 mPa·s.

Consider `COP(=O)([O-])OC.Cn1cc[n+](C)c1` [1,3-dimethylimidazolium dimethylphosphate], for which the viscosity is given as 336.74 ± 56 mPa·s.

Still in this data set, the particulars now being: 298.15 K; 101 kPa; Liquid; Vibrating tube method.
For the compound `CC(C)O` [propan-2-ol], the mass density stood at 781 ± 5 kg/m3.

In the case of `CCOP(=O)([O-])OCC.CCn1cc[n+](C)c1` [1-ethyl-3-methylimidazolium diethyl phosphate], the mass density is given as 1146 ± 9 kg/m3.

As to `CCCO` [propan-1-ol], the mass density was 800.1 ± 5.1 kg/m3.

`COP(=O)([O-])OC.Cn1cc[n+](C)c1` [1,3-dimethylimidazolium dimethylphosphate]: the mass density was determined as 1250 ± 9 kg/m3.

Still in this data set, the particulars now being: 303.15 K.
As to `CC(C)O` [propan-2-ol], the surface tension liquid-gas stood at 20.54 ± 0.65 mN/m.

Consider `CCOP(=O)([O-])OCC.CCn1cc[n+](C)c1` [1-ethyl-3-methylimidazolium diethyl phosphate], for which the surface tension liquid-gas is 34.19 ± 1.2 mN/m.

For `CCCO` [propan-1-ol], the surface tension liquid-gas was determined as 22.81 ± 0.7 mN/m.

Take `COP(=O)([O-])OC.Cn1cc[n+](C)c1` [1,3-dimethylimidazolium dimethylphosphate]: the surface tension liquid-gas turned out to be 46.21 ± 1.4 mN/m.

Staying with this data set, now noted: 303.15 K; 101 kPa; Liquid.
As to `CC(C)O` [propan-2-ol], the viscosity is 1.79 ± 0.23 mPa·s.

With `CCOP(=O)([O-])OCC.CCn1cc[n+](C)c1` [1-ethyl-3-methylimidazolium diethyl phosphate], the viscosity is 284.34 ± 46 mPa·s.

As to `CCCO` [propan-1-ol], the viscosity turned out to be 1.73 ± 0.22 mPa·s.

For `COP(=O)([O-])OC.Cn1cc[n+](C)c1` [1,3-dimethylimidazolium dimethylphosphate], the viscosity is 221.41 ± 34 mPa·s.

The same data set, now with this note: 303.15 K; 101 kPa; Liquid; Vibrating tube method.
Take `CC(C)O` [propan-2-ol]: the mass density was 777 ± 5 kg/m3.

For the compound `CCOP(=O)([O-])OCC.CCn1cc[n+](C)c1` [1-ethyl-3-methylimidazolium diethyl phosphate], the mass density amounted to 1141 ± 9 kg/m3.

For `CCCO` [propan-1-ol], the mass density stood at 796 ± 5 kg/m3.

Consider `COP(=O)([O-])OC.Cn1cc[n+](C)c1` [1,3-dimethylimidazolium dimethylphosphate], for which the mass density was determined as 1247 ± 9 kg/m3.

The same data set, now with this note: 313.15 K.
Regarding `CC(C)O` [propan-2-ol], the surface tension liquid-gas came out at 19.97 ± 0.64 mN/m.

Consider `CCOP(=O)([O-])OCC.CCn1cc[n+](C)c1` [1-ethyl-3-methylimidazolium diethyl phosphate], for which the surface tension liquid-gas stood at 33.54 ± 1.2 mN/m.

Turning to `CCCO` [propan-1-ol], the surface tension liquid-gas was determined as 22.19 ± 0.69 mN/m.

For the compound `COP(=O)([O-])OC.Cn1cc[n+](C)c1` [1,3-dimethylimidazolium dimethylphosphate], the surface tension liquid-gas was determined as 44.89 ± 1.4 mN/m.

Staying with this data set, now noted: 313.15 K; 101 kPa; Liquid.
On to `CC(C)O` [propan-2-ol], for which the viscosity is given as 1.35 ± 0.17 mPa·s.

As to `CCOP(=O)([O-])OCC.CCn1cc[n+](C)c1` [1-ethyl-3-methylimidazolium diethyl phosphate], the viscosity was 150.96 ± 22 mPa·s.

Regarding `CCCO` [propan-1-ol], the viscosity was 1.38 ± 0.18 mPa·s.

In the case of `COP(=O)([O-])OC.Cn1cc[n+](C)c1` [1,3-dimethylimidazolium dimethylphosphate], the viscosity came to 178.66 ± 26 mPa·s.

The same data set, now with this note: 313.15 K; 101 kPa; Liquid; Vibrating tube method.
As for `CC(C)O` [propan-2-ol], the mass density worked out at 768 ± 5 kg/m3.

Turning to `CCOP(=O)([O-])OCC.CCn1cc[n+](C)c1` [1-ethyl-3-methylimidazolium diethyl phosphate], the mass density stood at 1130 ± 9 kg/m3.

Consider `CCCO` [propan-1-ol], for which the mass density came to 788 ± 5 kg/m3.

Take `COP(=O)([O-])OC.Cn1cc[n+](C)c1` [1,3-dimethylimidazolium dimethylphosphate]: the mass density stood at 1240 ± 9 kg/m3.

Still in this data set, the particulars now being: 323.15 K.
Take `CC(C)O` [propan-2-ol]: the surface tension liquid-gas turned out to be 18.87 ± 0.61 mN/m.

As to `CCOP(=O)([O-])OCC.CCn1cc[n+](C)c1` [1-ethyl-3-methylimidazolium diethyl phosphate], the surface tension liquid-gas amounted to 33.15 ± 1.2 mN/m.

Take `CCCO` [propan-1-ol]: the surface tension liquid-gas is reported as 21.34 ± 0.67 mN/m.

For `COP(=O)([O-])OC.Cn1cc[n+](C)c1` [1,3-dimethylimidazolium dimethylphosphate], the surface tension liquid-gas is reported as 42.67 ± 1.4 mN/m.

Still in this data set, the particulars now being: 323.15 K; 101 kPa; Liquid.
Take `CC(C)O` [propan-2-ol]: the viscosity is 1.03 ± 0.13 mPa·s.

On to `CCOP(=O)([O-])OCC.CCn1cc[n+](C)c1` [1-ethyl-3-methylimidazolium diethyl phosphate], for which the viscosity amounted to 90.02 ± 12 mPa·s.

On to `CCCO` [propan-1-ol], for which the viscosity was 1.12 ± 0.15 mPa·s.

In the case of `COP(=O)([O-])OC.Cn1cc[n+](C)c1` [1,3-dimethylimidazolium dimethylphosphate], the viscosity is reported as 147.95 ± 21 mPa·s.

The data set is the same for the next values; noted with them: 323.15 K; 101 kPa; Liquid; Vibrating tube method.
Take `CC(C)O` [propan-2-ol]: the mass density amounted to 759 ± 5 kg/m3.

For `CCOP(=O)([O-])OCC.CCn1cc[n+](C)c1` [1-ethyl-3-methylimidazolium diethyl phosphate], the mass density was 1116 ± 9 kg/m3.

Regarding `CCCO` [propan-1-ol], the mass density came to 780 ± 5 kg/m3.

On to `COP(=O)([O-])OC.Cn1cc[n+](C)c1` [1,3-dimethylimidazolium dimethylphosphate], for which the mass density is on record as 1233 ± 9 kg/m3.

Staying with this data set, now noted: 333.15 K.
For `CC(C)O` [propan-2-ol], the surface tension liquid-gas is given as 18.11 ± 0.59 mN/m.

Consider `CCOP(=O)([O-])OCC.CCn1cc[n+](C)c1` [1-ethyl-3-methylimidazolium diethyl phosphate], for which the surface tension liquid-gas was determined as 32.81 ± 1.2 mN/m.

With `CCCO` [propan-1-ol], the surface tension liquid-gas came out at 20.66 ± 0.65 mN/m.

`COP(=O)([O-])OC.Cn1cc[n+](C)c1` [1,3-dimethylimidazolium dimethylphosphate]: the surface tension liquid-gas came out at 41.99 ± 1.3 mN/m.

Staying with this data set, now noted: 333.15 K; 101 kPa; Liquid.
On to `CC(C)O` [propan-2-ol], for which the viscosity was 0.82 ± 0.11 mPa·s.

Take `CCOP(=O)([O-])OCC.CCn1cc[n+](C)c1` [1-ethyl-3-methylimidazolium diethyl phosphate]: the viscosity is listed as 58.02 ± 7.5 mPa·s.

For the compound `CCCO` [propan-1-ol], the viscosity was determined as 0.91 ± 0.12 mPa·s.

Regarding `COP(=O)([O-])OC.Cn1cc[n+](C)c1` [1,3-dimethylimidazolium dimethylphosphate], the viscosity turned out to be 133.73 ± 19 mPa·s.

The data set is the same for the next values; noted with them: 333.15 K; 101 kPa; Liquid; Vibrating tube method.
`CC(C)O` [propan-2-ol]: the mass density was determined as 750 ± 5 kg/m3.

Consider `CCOP(=O)([O-])OCC.CCn1cc[n+](C)c1` [1-ethyl-3-methylimidazolium diethyl phosphate], for which the mass density is 1103 ± 9 kg/m3.

For the compound `COP(=O)([O-])OC.Cn1cc[n+](C)c1` [1,3-dimethylimidazolium dimethylphosphate], the mass density is listed as 1230 ± 8 kg/m3.

(Values after the NIST ThermoML archive (doi:10.1021/je400576e).)
